Laboratory results: the NIST ThermoML archive (doi:10.1016/j.tca.2014.05.034)
± gives the expanded uncertainty stated by the source.

Assays:
[1] = xn = mol fraction of the nth substance listed; conditions: 100 kPa, Liquid, x2 = 0; for kinematic viscosity: Capillary tube (Ostwald / Ubbelohde) method; for mass density: Pycnometric method
[2] = 100 kPa, Liquid; for kinematic viscosity: Capillary tube (Ostwald / Ubbelohde) method; for mass density: Pycnometric method

| Structure (SMILES) | kinematic viscosity ([1]; 298.15 K) [m2/s] | mass density ([1]; 298.15 K) [kg/m3] | kinematic viscosity ([1]; 303.15 K) [m2/s] | mass density ([1]; 303.15 K) [kg/m3] | kinematic viscosity ([1]; 308.15 K) [m2/s] | mass density ([1]; 308.15 K) [kg/m3] | kinematic viscosity ([1]; 313.15 K) [m2/s] | mass density ([1]; 313.15 K) [kg/m3] | kinematic viscosity ([1]; 318.15 K) [m2/s] | mass density ([1]; 318.15 K) [kg/m3] | kinematic viscosity ([2]; 298.15 K) [m2/s] | mass density ([2]; 298.15 K) [kg/m3] | kinematic viscosity ([2]; 303.15 K) [m2/s] | mass density ([2]; 303.15 K) [kg/m3] | kinematic viscosity ([2]; 308.15 K) [m2/s] | mass density ([2]; 308.15 K) [kg/m3] | kinematic viscosity ([2]; 313.15 K) [m2/s] | mass density ([2]; 313.15 K) [kg/m3] | kinematic viscosity ([2]; 318.15 K) [m2/s] | mass density ([2]; 318.15 K) [kg/m3] |
| --- | --- | --- | --- | --- | --- | --- | --- | --- | --- | --- | --- | --- | --- | --- | --- | --- | --- | --- | --- | --- |
| OCCOCCO [diethylene glycol] + NCCN | 2.47e-05 ± 2e-07 | 1112.8 ± 0.7 | 1.96e-05 ± 2e-07 | 1109.2 ± 0.7 | 1.53e-05 ± 1e-07 | 1105.6 ± 0.7 | 1.29e-05 ± 1e-07 | 1102.3 ± 0.7 | 1.1e-05 ± 1e-07 | 1099.2 ± 0.7 | – | – | – | – | – | – | – | – | – | – |
| OCCOCCO [diethylene glycol] | – | – | – | – | – | – | – | – | – | – | 2.47e-05 ± 2e-07 | 1112.8 ± 0.7 | 1.96e-05 ± 2e-07 | 1109.2 ± 0.7 | 1.53e-05 ± 1e-07 | 1105.6 ± 0.7 | 1.29e-05 ± 1e-07 | 1102.3 ± 0.7 | 1.1e-05 ± 1e-07 | 1099.2 ± 0.7 |
| NCCN [ethane-1,2-diamine] | – | – | – | – | – | – | – | – | – | – | 1.56e-06 ± 1e-08 | 893.3 ± 0.7 | 1.39e-06 ± 1e-08 | 888.8 ± 0.7 | 1.27e-06 ± 1e-08 | 884.9 ± 0.7 | 1.17e-06 ± 1e-08 | 880 ± 0.7 | 1.08e-06 ± 1e-08 | 875.2 ± 0.7 |
